This passage reports IC50 and solubility results from ChEMBL document CHEMBL4049386, “Discovery of an Inhibitor of the Proteasome Subunit Rpn11” (J Med Chem, 2017).

The target of data set [1] is T1, 26S proteasome non-ATPase regulatory subunit 14 (Homo sapiens, UniProt O00487). Briefly: Inhibition of 26S proteasome regulatory subunit RPN11 deubiquitinating activity in beta5 inhibitor MG132 pretreated human HeLa cells expressing UbG76V-GFP assessed as reduction in UbG76V-GFP degradation rate by fluorescence microscopic method. The class given is cell-based.
The nature of data set [2]: Aqueous solubility of the compound. Conditions: buffer. The class given is physicochemical.
The target of data set [3] is T2, STAM-binding protein (Homo sapiens, UniProt O95630).
T2 sequence (O95630 whole entry): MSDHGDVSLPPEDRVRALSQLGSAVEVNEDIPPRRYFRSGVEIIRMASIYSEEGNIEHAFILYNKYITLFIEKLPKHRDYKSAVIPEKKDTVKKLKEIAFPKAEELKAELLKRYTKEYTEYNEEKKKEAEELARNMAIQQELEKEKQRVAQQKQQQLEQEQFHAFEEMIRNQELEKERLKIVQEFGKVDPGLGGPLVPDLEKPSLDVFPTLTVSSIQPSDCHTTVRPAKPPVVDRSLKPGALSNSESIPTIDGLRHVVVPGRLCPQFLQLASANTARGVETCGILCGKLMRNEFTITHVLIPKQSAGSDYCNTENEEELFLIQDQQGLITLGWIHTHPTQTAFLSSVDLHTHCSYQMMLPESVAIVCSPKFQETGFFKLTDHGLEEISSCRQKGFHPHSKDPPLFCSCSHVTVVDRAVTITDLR
Briefly: Inhibition of AMSH (unknown origin) using DiUbK63TAMRA as substrate by fluorescence assay.

Data set [4] concerns the target T1, 26S proteasome non-ATPase regulatory subunit 14. The experiment in a line: Inhibition of 26S proteasome regulatory subunit RPN11 deubiquitinating activity in human erythrocytes using Ub4-pepOG protein substrate preincubated for 1 hr followed by substrate addition measured after 80 mins by fluorescence polarization assay.
The target of data set [5] is COP9 signalosome complex subunit 5 (Homo sapiens, UniProt Q92905). The experiment in a line: Inhibition of CSN5 (unknown origin) using SCFskp2-Nedd8OG as substrate after 1 hr by fluorescence polarization assay. In general terms: Polarisation of emitted light reports the rotation of a fluorescent probe.
In data set [6] the test system is HCT-116. Briefly: cells. The conditions noted are these: Homo sapiens, HCT-116, 72 h.
Description: Antiproliferative activity against human HCT116 cells after 72 hrs by Cell Titer-Glo assay
The target of data set [7] is 72 kDa type IV collagenase (Homo sapiens, UniProt P08253). The experiment in a line: Inhibition of recombinant human MMP2 catalytic domain (Tyr110 to Asp452 residues) expressed in yeast using Mca-Pro-Leu-Gly-Leu-Dpa-Ala-Arg-NH2.AcOH as substrate preincubated for 30 mins followed by substrate addition measured every minute for 20 mins by fluorescence assay.

pIC50: −log10 of the molar value.

T1 sequence (O00487 whole entry): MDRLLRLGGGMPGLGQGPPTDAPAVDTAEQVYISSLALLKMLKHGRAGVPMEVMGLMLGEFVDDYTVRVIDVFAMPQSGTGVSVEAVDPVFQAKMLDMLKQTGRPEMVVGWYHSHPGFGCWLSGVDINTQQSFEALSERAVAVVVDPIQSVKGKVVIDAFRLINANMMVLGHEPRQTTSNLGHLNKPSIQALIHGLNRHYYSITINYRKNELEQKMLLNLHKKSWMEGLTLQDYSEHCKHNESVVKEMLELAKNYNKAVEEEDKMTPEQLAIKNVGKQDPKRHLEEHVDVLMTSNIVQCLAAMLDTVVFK
Chain of COP9 signalosome complex subunit 5 (Q92905 whole entry, one chain of several): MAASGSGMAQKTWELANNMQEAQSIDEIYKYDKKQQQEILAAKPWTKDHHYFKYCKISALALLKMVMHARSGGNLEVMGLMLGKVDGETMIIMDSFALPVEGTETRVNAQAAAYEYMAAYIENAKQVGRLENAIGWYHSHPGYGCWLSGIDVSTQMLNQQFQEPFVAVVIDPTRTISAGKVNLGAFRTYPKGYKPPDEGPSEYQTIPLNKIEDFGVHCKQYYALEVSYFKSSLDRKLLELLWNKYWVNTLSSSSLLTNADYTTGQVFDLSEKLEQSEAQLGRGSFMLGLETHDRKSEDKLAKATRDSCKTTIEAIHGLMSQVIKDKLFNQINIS
Chain of 72 kDa type IV collagenase (P08253 whole entry, the tested form may be a part): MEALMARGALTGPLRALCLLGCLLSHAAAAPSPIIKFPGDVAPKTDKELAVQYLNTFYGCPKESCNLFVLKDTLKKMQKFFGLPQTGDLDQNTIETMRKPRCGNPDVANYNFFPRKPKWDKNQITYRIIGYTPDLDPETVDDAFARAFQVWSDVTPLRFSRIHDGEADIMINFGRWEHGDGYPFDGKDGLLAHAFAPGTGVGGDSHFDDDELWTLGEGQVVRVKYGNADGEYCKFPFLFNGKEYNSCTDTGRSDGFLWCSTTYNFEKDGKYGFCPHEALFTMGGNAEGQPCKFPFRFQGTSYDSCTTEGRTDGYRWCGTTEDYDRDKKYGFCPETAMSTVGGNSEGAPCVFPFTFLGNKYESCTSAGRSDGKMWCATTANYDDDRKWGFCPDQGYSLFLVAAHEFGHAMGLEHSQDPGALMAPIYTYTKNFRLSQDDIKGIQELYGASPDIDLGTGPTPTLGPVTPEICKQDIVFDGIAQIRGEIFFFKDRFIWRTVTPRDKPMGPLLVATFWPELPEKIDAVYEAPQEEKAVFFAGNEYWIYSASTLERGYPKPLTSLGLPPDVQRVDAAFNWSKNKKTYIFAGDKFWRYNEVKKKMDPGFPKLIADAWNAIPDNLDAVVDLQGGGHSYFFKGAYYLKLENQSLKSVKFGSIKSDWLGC

A word on the pIC50: it is −log10 of the IC50, conventionally taken in molar units. For `O=C(NCCc1cccs1)c1cnc2c(SSc3cccc4cc(C(=O)NCCc5cccs5)cnc34)cccc2c1`, the negative logarithm of the IC50 (pIC50) in data set [1] is 5.30. For the same compound, the solubility entry in data set [2] is “Soluble”.

For `O=C(NCc1ccccc1)c1cnc2c(SSc3cccc4cc(C(=O)NCc5ccccc5)cnc34)cccc2c1`, the pIC50 in data set [1] and in data set [3] was below 5.00 throughout.

Regarding `O=C(NCc1cccs1)c1cnc2c(SSc3cccc4cc(C(=O)NCc5cccs5)cnc34)cccc2c1`, in data set [1], the pIC50 was 5.30. Further, the solubility result in data set [2] is recorded as “Soluble”.

With `O=C(O)c1ccnc2c(SSc3cccc4c(C(=O)O)ccnc34)cccc12`, the negative logarithm of the IC50 (pIC50) in data set [4] was 5.89.

Consider `O=C(NCC1CCCO1)c1cnc2c(SSc3cccc4cc(C(=O)NCC5CCCO5)cnc34)cccc2c1` (stereo not given), for which, in data set [1], the negative-log IC50 (pIC50) was 6.00. Besides, the solubility result in data set [2] is “Soluble”.

Turning to `O=C(Nc1ncco1)c1cnc2c(SSc3cccc4cc(C(=O)Nc5ncco5)cnc34)cccc2c1`, the negative-log IC50 (pIC50) in data set [1] was below 5.00; in data set [4] it was 5.59; in data set [5] it was 4.82; in data set [3], 5.30. In addition, the solubility entry in data set [2] was “Soluble”.

As for `O=C(NCc1cccs1)c1ccc2cccc(SSc3cccc4ccc(C(=O)NCc5cccs5)nc34)c2n1`, the pIC50 in data set [4] is below 4.00.

As for `O=C(CNC(=O)c1cnc2c(SSc3cccc4cc(C(=O)NCC(=O)NCC(=O)OCc5ccccc5)cnc34)cccc2c1)NCC(=O)OCc1ccccc1`, the negative-log IC50 (pIC50) in data set [1] was below 5.00; in data set [4], below 5.30; in data set [5], below 4.52; in data set [3], 5.46.

`CNC(=O)c1cnc2c(SSc3cccc4cc(C(=O)NC)cnc34)cccc2c1` gave a negative logarithm of the IC50 (pIC50) in data set [3] of 5.39.

As for `O=C(NCc1ccccc1)c1ccc2cccc(SSc3cccc4ccc(C(=O)NCc5ccccc5)nc34)c2n1`, the pIC50 in data set [4] is below 4.00.

Turning to `O=C(NCc1ccncc1)c1cnc2c(SSc3cccc4cc(C(=O)NCc5ccncc5)cnc34)cccc2c1`, the pIC50 in data set [1] was below 5.00; in data set [4] it was 6.70; in data set [5], 5.15; in data set [3] it was 6.30.

Turning to `Sc1cccc2ccccc12`, the pIC50 in data set [4] and in data set [6] was below 4.00 throughout.

`Nc1cccc2cccnc12` [8-AMINOQUINOLINE] showed a pIC50 in data set [4] below 4.00.

As for `Cc1cccc2cccnc12`, the pIC50 in data set [4] and in data set [6] was below 4.00 throughout.

In the case of `Oc1cccc2cccnc12` [OXYQUINOLINE], the negative logarithm of the IC50 (pIC50) in data set [4] is below 4.00; in data set [6], 5.22.

`O=C(O)c1cnc2c(SSc3cccc4cc(C(=O)O)cnc34)cccc2c1` had a pIC50 in data set [4] of 5.96.

For the compound `O=C(NCc1cccnc1)c1cnc2c(SSc3cccc4cc(C(=O)NCc5cccnc5)cnc34)cccc2c1`, the pIC50 in data set [1] is below 5.00; in data set [4] it was 5.49; in data set [5], below 4.00. For the same compound, in data set [2], the solubility result is on record as “Soluble”.

`O=C(NCc1ccco1)c1ccnc2c(SSc3cccc4c(C(=O)NCc5ccco5)ccnc34)cccc12`: the negative logarithm of the IC50 (pIC50) in data set [4] is 5.66.

As for `O=C(NCc1ccc(C(F)(F)F)cc1)c1cnc2c(SSc3cccc4cc(C(=O)NCc5ccc(C(F)(F)F)cc5)cnc34)cccc2c1`, the pIC50 is below 5.00 in data set [1], 6.10 in data set [4], below 4.00 in data set [5] and 5.46 in data set [3]. The solubility entry in data set [2] is “Insoluble”.

Take `COC(=O)CNC(=O)c1cnc2c(SSc3cccc4cc(C(=O)NCC(=O)OC)cnc34)cccc2c1`: the negative-log IC50 (pIC50) in data set [1] was below 6.52; in data set [4] it was below 5.70; in data set [5] it was below 4.00; in data set [3] it was 5.66.

For the compound `COC(=O)c1ccc2cccc(SSc3cccc4ccc(C(=O)OC)nc34)c2n1`, in data set [4], the pIC50 is below 4.30.

Take `O=C(NCCN1CCOCC1)c1cnc2c(SSc3cccc4cc(C(=O)NCCN5CCOCC5)cnc34)cccc2c1`: the negative-log IC50 (pIC50) was below 5.00 in data set [1], below 4.00 in data set [5] and 4.59 in data set [3].

On to `NC(=O)c1cnc2c(SSc3cccc4cc(C(N)=O)cnc34)cccc2c1`, for which the negative-log IC50 (pIC50) was 5.92 in data set [1], 4.82 in data set [5] and 5.77 in data set [3].

The compound `O=C(NCc1cccs1)c1ccnc2c(SSc3cccc4c(C(=O)NCc5cccs5)ccnc34)cccc12` showed a pIC50 in data set [4] of 6.00.

As to `COC(=O)c1ccnc2c(SSc3cccc4c(C(=O)OC)ccnc34)cccc12`, the pIC50 in data set [4] was 6.00.

For `O=C(NCc1ccco1)c1cnc2c(SSc3cccc4cc(C(=O)NCc5ccco5)cnc34)cccc2c1`, the negative logarithm of the IC50 (pIC50) in data set [1] is 6.00; in data set [5], above 6.30. Moreover, in data set [2], the solubility result is “Soluble”.

On to `CSc1cccc2cccnc12`, for which the negative logarithm of the IC50 (pIC50) in data set [4] and in data set [6] was below 4.00 throughout.

`O=C(O)c1ccc2cccc(SSc3cccc4ccc(C(=O)O)nc34)c2n1` showed a negative-log IC50 (pIC50) in data set [4] below 4.70.

Turning to `O=C(NCCc1ccco1)c1cnc2c(SSc3cccc4cc(C(=O)NCCc5ccco5)cnc34)cccc2c1`, the negative logarithm of the IC50 (pIC50) in data set [1] is 5.85. Further, in data set [2], the solubility result is “Soluble”.

In the case of `O=C(NCc1nccs1)c1cnc2c(SSc3cccc4cc(C(=O)NCc5nccs5)cnc34)cccc2c1`, the negative logarithm of the IC50 (pIC50) in data set [5] is 4.62. The solubility result in data set [2] is recorded as “Soluble”.

As for `O=C(NCc1ccc2c(c1)OCO2)c1cnc2c(SSc3cccc4cc(C(=O)NCc5ccc6c(c5)OCO6)cnc34)cccc2c1`, the pIC50 was below 5.00 in data set [1] and above 6.70 in data set [3]. In data set [2], the solubility entry was “Insoluble”.

Turning to `O=C(NCCc1nccs1)c1cnc2c(O)cccc2c1`, the negative logarithm of the IC50 (pIC50) is below 4.00 in data set [1], below 4.40 in data set [4], below 4.00 in data set [5] and below 4.00 in data set [3].

With `O=C(NCCc1nccs1)c1ccc2c(SSc3cccc4nc(C(=O)NCCc5nccs5)ccc34)cccc2n1`, the pIC50 is below 4.00 in data set [1], below 4.00 in data set [4], 4.46 in data set [5] and below 4.00 in data set [3].

For the compound `COC(=O)c1cnc2c(SSc3cccc4cc(C(=O)OC)cnc34)cccc2c1`, the negative-log IC50 (pIC50) in data set [4] is 6.05.

Turning to `COc1ccc(CNC(=O)c2cnc3c(SSc4cccc5cc(C(=O)NCc6ccc(OC)cc6)cnc45)cccc3c2)cc1`, the pIC50 in data set [1] is below 5.00; in data set [4] it was above 6.70. Further, in data set [2], the solubility result is “Insoluble”.

With `Sc1cccc2ncccc12`, the pIC50 in data set [4] and in data set [6] was below 4.00 each time.

On to `O=C(NCc1ccc(F)cc1)c1cnc2c(SSc3cccc4cc(C(=O)NCc5ccc(F)cc5)cnc34)cccc2c1`, for which the negative-log IC50 (pIC50) in data set [1] is below 5.00; in data set [4], above 6.70; in data set [3], 6.05. In addition, the solubility result in data set [2] is listed as “Insoluble”.

Regarding `O=C(NCc1ccccn1)c1cnc2c(SSc3cccc4cc(C(=O)NCc5ccccn5)cnc34)cccc2c1`, the pIC50 in data set [1] was below 5.00; in data set [4], 5.40; in data set [5], below 4.30; in data set [3], 4.77. The solubility entry in data set [2] is on record as “Soluble”.

On to `Cc1ccc2cccc(S)c2n1`, for which the pIC50 in data set [7] was below 3.70; in data set [4] it was below 4.00; in data set [5], below 4.00; in data set [6], below 4.30.

For the compound `CSc1cccc2cc(C(=O)NCCc3nccs3)cnc12`, the pIC50 in data set [1] was below 4.00; in data set [4] it was below 4.40; in data set [5] it was below 4.00; in data set [3], below 4.00.
